Reference: PubChem BioAssay (NCI)
Values joined by “and” are separate entries in the source; they are usually repeats but may differ in a detail not shown here. Equal values may be shown once.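 In this assay, cells in 96-well plates receive the compound at five concentrations for 48 hours. Endpoints are linearly interpolated between the surrounding concentrations. The concentration for 50% growth inhibition is given as GI50. TGI marks complete inhibition of growth.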

Tests used:
Assay in all cases: inhibition of tumour cell growth, NCI panel, 48 h
MOLT-4 leukemia = tested on: MOLT-4 leukemia
M14 melanoma = tested on: M14 melanoma
TK-10 renal = tested on: TK-10 renal
SK-MEL-28 melanoma = tested on: SK-MEL-28 melanoma
U251 CNS = tested on: U251 CNS
IGROV1 ovarian = tested on: IGROV1 ovarian
HL-60(TB) leukemia = tested on: HL-60(TB) leukemia
SNB-19 CNS = tested on: SNB-19 CNS
OVCAR-8 ovarian = tested on: OVCAR-8 ovarian
MCF7 breast = tested on: MCF7 breast

Compound	GI50 (MOLT-4 leukemia)	TGI (MOLT-4 leukemia)	TGI (M14 melanoma)	GI50 (TK-10 renal)	TGI (TK-10 renal)	GI50 (SK-MEL-28 melanoma)	TGI (SK-MEL-28 melanoma)	GI50 (U251 CNS)	TGI (U251 CNS)	GI50 (IGROV1 ovarian)	TGI (IGROV1 ovarian)	GI50 (HL-60(TB) leukemia)	TGI (HL-60(TB) leukemia)	GI50 (SNB-19 CNS)	TGI (SNB-19 CNS)	GI50 (OVCAR-8 ovarian)	TGI (OVCAR-8 ovarian)	GI50 (MCF7 breast)	TGI (MCF7 breast)	GI50 (M14 melanoma)
COc1ccc2c(c1)c(CC(=O)[Se]C)c(C)n2C(=O)c1ccc(Cl)cc1	> 0.335 µM	> 1 µM	> 0.34 µM	> 0.347 µM	> 0.543 µM	> 0.202 µM	> 0.588 µM	> 0.326 µM	> 0.573 µM	> 0.199 µM	> 0.615 µM	> 0.398 µM	> 0.779 µM	> 0.421 µM	> 0.752 µM	> 0.346 µM	> 0.733 µM	> 0.35 µM	> 1 µM	–
CC(C)CCCC(C)[C@H]1CCC2[C@@H]3CCC4Cc5nc6c(nc5C[C@]4(C)C3CC[C@@]21C)CC1CC[C@@H]2C(CC[C@@]3(C)C2CC[C@@H]3C(C)CCCC(C)C)[C@@]1(C)C6 (stereo partly specified)	–	> 100 µM	> 100 µM	–	> 100 µM	–	> 100 µM	–	> 100 µM	–	> 100 µM	–	> 100 µM	–	> 100 µM	–	> 100 µM	–	> 100 µM	–
C/C(O)=C(/C=N/C(=S)Nc1ccc(S(N)(=O)=O)cc1)C(=O)Nc1ccccc1C	–	> 100 µM	> 100 µM	–	> 100 µM	–	–	–	> 100 µM	–	> 100 µM	–	42.8 µM	–	> 100 µM	–	> 100 µM	–	> 100 µM	–
CC1=C(C(=O)Nc2ccc3n[nH]c(C)c3c2)C(c2ccc(C(F)(F)F)cc2)CC(=O)N1 (stereo unspecified)	16.4 µM	> 25 µM	> 25 µM	14 µM	> 25 µM	> 25 µM	> 25 µM	> 25 µM	> 25 µM	10.3 µM	> 25 µM	> 25 µM	> 25 µM	> 25 µM	> 25 µM	> 25 µM	> 25 µM	> 17.3 µM	> 25 µM	> 25 µM
O=C1Nc2ccc(Br)cc2C1=Nc1cccnc1	–	64.5 µM	31.5 µM	–	> 100 µM	–	42 µM	–	24.8 µM	–	60.7 µM	–	48.8 µM	–	> 100 µM	–	51.7 µM	–	59.3 µM	–
C#CC#CC#CC#CC#CC#CC#CC#CCC1OCC(COC(=O)O[C@@H](C(=O)O[C@H]2C[C@@]3(O)[C@@H](OC(=O)c4ccccc4)[C@@H]4[C@]5(OC(C)=O)CO[C@@H]5C[C@H](O)[C@@]4(C)C(=O)[C@H](OC(C)=O)C(=C2C)C3(C)C)[C@@H](NC(=O)c2ccccc2)c2ccccc2)O1 (stereo partly specified)	0.212 µM	> 33.3 µM	–	> 16.3 µM	> 33.3 µM	0.25 µM	> 33.3 µM	0.162 µM	> 33.3 µM	0.235 µM	> 33.3 µM	0.099 µM	–	0.612 µM	> 33.3 µM	0.187 µM	> 33.3 µM	0.0461 µM	> 33.3 µM	0.16 µM
COc1cc(OC)c2nc(C)c3c(c2c1)SCC3	–	> 100 µM	> 100 µM	–	38.5 µM	–	> 100 µM	–	55.9 µM	–	34.7 µM	–	> 100 µM	–	34.8 µM	–	35.4 µM	–	36.2 µM	–
O=C(Nc1ccc(Br)cc1F)c1cc(I)ccc1O	2.66 µM	7.48 µM	13.1 µM	4.77 µM	9.43 µM	2.62 µM	11.3 µM	2.67 µM	> 100 µM	1.95 µM	> 100 µM	2.13 µM	4.79 µM	3.08 µM	> 100 µM	3.01 µM	15.9 µM	1.97 µM	> 100 µM	2.88 µM
CC1=C(c2cccc(O)c2)[C@H](c2ccc(OCCN3CC(CF)C3)cc2)Oc2ccc(O)cc21	3.59 µM	16 µM	9.45 µM	12 µM	25.1 µM	5.3 µM	18 µM	4.19 µM	18.1 µM	4.42 µM	16.6 µM	4.39 µM	22.2 µM	10.1 µM	22.1 µM	12.9 µM	32.6 µM	0.0194 µM	13.4 µM	2.93 µM
CC1(C)C2CCC13C(=O)C1OC3(C2)C2C(=O)c3ccccc3C(=O)C12 (stereo unspecified)	> 100 µM	> 100 µM	> 100 µM	> 100 µM	> 100 µM	> 100 µM	> 100 µM	> 100 µM	> 100 µM	–	–	> 100 µM	> 100 µM	> 100 µM	> 100 µM	> 100 µM	> 100 µM	> 100 µM	> 100 µM	> 100 µM
Cc1cc2c(C(C)C)c(O)c(O)cc2c(O)c1-c1c(C)cc2c(C(C)C)c(O)c(O)cc2c1O	10.6 µM	44.9 µM	27.6 µM	13.6 µM	83.4 µM	16.8 µM	32.8 µM	4.16 µM	14.5 µM	10.1 µM	23.6 µM	9.07 µM	34.1 µM	14.9 µM	35.6 µM	15.2 µM	41.1 µM	11.4 µM	29.5 µM	12.3 µM
O=C(Nc1cccc(-n2cc(-c3ccncc3)c(-c3ccc(Cl)c(O)c3)n2)c1)Nc1cc(C(F)(F)F)cc(C(F)(F)F)c1	1.15 µM	4.36 µM	1.9 µM	0.843 µM	2.75 µM	0.807 µM	1.61 µM	0.484 µM	1.15 µM	0.795 µM	2.55 µM	1.13 µM	6.63 µM	0.979 µM	6.65 µM	0.563 µM	5.92 µM	0.666 µM	4.62 µM	0.692 µM
CC1=NN(C(=O)c2ccccc2O)C(=O)/C1=C/c1ccc(O)cc1	–	> 100 µM	22.4 µM	–	> 100 µM	–	> 100 µM	–	> 100 µM	–	5.03 µM	–	> 41.1 µM	–	> 100 µM	–	> 100 µM	–	> 100 µM	–
Cc1cc(NCCCN(C)C)c2ccc3c(ccc4c(NCCCN(C)C)cc(C)nc43)c2n1	0.27 µM	–	0.397 µM	0.24 µM	0.573 µM	0.187 µM	0.413 µM	0.199 µM	0.541 µM	0.152 µM	0.377 µM	0.0375 µM	–	0.181 µM	0.514 µM	0.114 µM	0.295 µM	0.0635 µM	0.302 µM	0.194 µM
C=C(C(N)=O)c1ccc([N+](=O)[O-])o1	–	18.8 µM	8.65 µM	–	27.2 µM	–	12.7 µM	–	34.6 µM	–	23.4 µM	–	6.12 µM	–	> 100 µM	–	10.6 µM	–	19.8 µM	–
NCCCC[C@@H]1NC(=O)[C@H]2CCCN2C(=O)[C@H](Cc2ccccc2)CNC(=O)[C@H](Cc2ccccc2)NC1=O	> 37.5 µM	> 37.5 µM	> 37.5 µM	> 37.5 µM	> 37.5 µM	> 37.5 µM	> 37.5 µM	> 37.5 µM	> 37.5 µM	> 37.5 µM	> 37.5 µM	> 11.3 µM	> 37.5 µM	> 37.5 µM	> 37.5 µM	> 37.5 µM	> 37.5 µM	> 37.5 µM	> 37.5 µM	> 37.5 µM
CSC1=C(N)C(=O)c2[nH]cc(CO)c2C1=N	0.204 µM	0.475 µM	0.285 µM	1.37 µM	2.72 µM	0.267 µM	0.618 µM	0.181 µM	0.347 µM	0.225 µM	0.521 µM	0.222 µM	0.514 µM	0.155 µM	0.295 µM	0.275 µM	0.948 µM	0.16 µM	0.407 µM	0.139 µM
O=C(/C=C/Sc1cc(C(F)(F)F)cc(C(F)(F)F)c1)c1ccc(Cl)cc1	1.64 µM	9.12 µM	3.36 µM	22.3 µM	37.8 µM	4.74 µM	17.1 µM	4.65 µM	16.2 µM	2.38 µM	6.55 µM	2 µM	11.4 µM	12.8 µM	25.4 µM	9.9 µM	45.3 µM	13.6 µM	35.8 µM	1.67 µM
C=CCN=C(N/N=C/c1ccc([N+](=O)[O-])o1)NS(=O)(=O)c1cc(C(=O)Nc2ccc(Cl)cc2)c(Cl)cc1SC	–	> 39.5 µM	> 21.6 µM	> 90.8 µM	> 100 µM	25.9 µM	> 100 µM	3.93 µM	> 100 µM	> 69.9 µM	> 100 µM	1.05 µM	8.09 µM	> 100 µM	> 100 µM	–	> 20.7 µM	1.28 µM	> 100 µM	3.09 µM
Cc1cc([N+](=O)[O-])c(NS(=O)(=O)c2cccc(C(=O)O)c2)cc1-c1cccnc1	> 100 µM	> 100 µM	> 100 µM	> 100 µM	> 100 µM	> 100 µM	> 100 µM	> 100 µM	> 100 µM	> 100 µM	> 100 µM	> 100 µM	> 100 µM	> 100 µM	> 100 µM	> 100 µM	> 100 µM	> 100 µM	> 100 µM	> 100 µM
COc1ccc2c(c1)NC1=C(C(=O)OC1)C2c1cc(OC)c2c(c1)OCO2 (stereo unspecified)	0.0246 µM	> 100 µM	0.0585 µM	60.7 µM	> 100 µM	–	> 100 µM	0.0236 µM	> 100 µM	0.0337 µM	> 100 µM	0.0209 µM	> 100 µM	0.0519 µM	> 100 µM	< 0.0185 µM	> 100 µM	< 0.0158 µM	> 100 µM	0.0132 µM
O=C1c2cc3c(cc2[C@@H]2[C@H]1c1ccc([N+](=O)[O-])cc1C(=O)N2CCCBr)OCO3	< 0.01 µM	0.0541 µM	0.318 µM	0.134 µM	4.04 µM	< 0.01 µM	> 100 µM	< 0.01 µM	–	< 0.0136 µM	–	< 0.01 µM	> 100 µM	< 0.01 µM	> 100 µM	< 0.01 µM	0.271 µM	< 0.01 µM	< 0.01 µM	< 0.01 µM
O=C1CCCCCCCCCCC1CN1CCCC1 (stereo unspecified)	–	> 100 µM	47.2 µM	–	> 100 µM	–	55.6 µM	–	> 100 µM	–	> 100 µM	–	> 100 µM	–	> 100 µM	–	> 100 µM	–	50.3 µM	–
C[C@H]1CC[C@@]2(NC1)O[C@H]1C[C@H]3[C@@H]4CC[C@H]5C[C@@H](O)CC[C@]5(C)[C@H]4CC[C@]3(C)[C@H]1[C@@H]2C	> 50 µM	> 100 µM	50 µM and > 100 µM	11.1 µM	25.3 µM and > 100 µM	17.9 µM	50 µM	11.9 µM	33.6 µM	12.3 µM	24.5 µM and > 100 µM	42.5 µM	50 µM and > 100 µM	–	50 µM and > 100 µM	–	50 µM and > 100 µM	12.9 µM	36.8 µM and > 100 µM	18.1 µM
COc1cccc(-c2c[nH]c3c(N/N=C/c4ccncc4)ncnc23)c1	4.42 µM	19.6 µM	9.54 µM	4.15 µM	20.6 µM	3.42 µM	> 16 µM	2.13 µM	7.94 µM	3.9 µM	> 25 µM	1.7 µM	7.35 µM	7.15 µM	> 25 µM	2.57 µM	11.8 µM	1.93 µM	5.91 µM	3.19 µM
N#C/C(=C\c1ccsc1)c1nc2ccccc2o1	> 100 µM	> 100 µM	> 100 µM	21.1 µM	70.5 µM	> 100 µM	> 100 µM	37.2 µM	> 100 µM	33.3 µM	> 100 µM	> 100 µM	> 100 µM	> 100 µM	> 100 µM	> 100 µM	> 100 µM	17.8 µM	> 100 µM	> 100 µM
Cc1ccccc1OCC(O)CN1CCN(c2ccc(Cl)cc2)CC1 (stereo unspecified)	14.7 µM	57.5 µM	34.6 µM	–	–	18.7 µM	33.5 µM	18.7 µM	33.7 µM	–	–	17.6 µM	56 µM	17.6 µM	35.5 µM	21 µM	44.4 µM	16.9 µM	31.5 µM	17 µM
